{"source": "patent US9821002B2", "about": "“Method for alleviating radiation injury with isorhamnetin-3-O-β-D-glucoside” (Sinotai Oncology Associate., Ltd., priority 2015, dated 2017)", "key": {"HaCaT cells": {"tested_on": "HaCaT cells", "experiment": "Apoptosis assay (FITC Annexin V/PI) after ultraviolet irradiation", "type": "cell-based, human", "conditions": "2 h pretreatment, ultraviolet 50 mJ/cm^2, 48 hours, mean ± SEM", "description": "(§1) Four groups of NMuMG cells (i.e., a normal control group referred to as Normal Control Group 1-A, an ultraviolet control group referred to as UV Control Group 1-A, and two experimental groups referred to as Experimental Groups 1-A to 2-A) and four groups of HaCaT cells (i.e., a normal control group referred to as Normal Control Group 1-B, an ultraviolet control group referred to as UV Control Group 1-B, and two experimental groups referred to as Experimental Groups 1-B to 2-B), were prepared based on the procedure set forth in “Source and cultivation of cell lines” of “Experimental materials”. The cells in each group were cultivated using 5 mL of a corresponding medium shown in Table 1 and a 6-cm Petri dish in an incubator (37° C., 5% CO2) for 24 hours. […]\n(§2) Subsequently, the stained cells were analyzed using BD Accuri™ C6 flow cytometry, in which cells that could be stained with FITC Annexin V but not with PI (i.e., FITC Annexin V positive and PI negative) represented cells that were induced with early apoptosis; cells stained with both FITC Annexin V and PI (i.e., FITC Annexin V positive and PI positive) represented cells that were induced with late apoptosis; and cells that could not be stained with FITC Annexin V and PI (i.e., FITC Annexin V negative and PI negative) represented viable cells. […]"}, "NMuMG cells": {"tested_on": "NMuMG cells", "experiment": "Apoptosis assay (FITC Annexin V/PI) after ultraviolet irradiation", "type": "cell-based, mouse", "conditions": "2 h pretreatment, ultraviolet 30 mJ/cm^2, 24 hours, mean ± SEM", "description": "as §1, §2"}}, "data": [{"smiles": "COc1cc(-c2oc3cc(O)cc(O)c3c(=O)c2O[C@@H]2O[C@H](CO)[C@@H](O)[C@H](O)[C@H]2O)ccc1O", "note": "[isorhamnetin-3-O-β-D-glucoside]", "values": [{"measurement": "Apoptosis percentage", "setting": "HaCaT cells; 50 μM", "result": "26.13 ± 7.26", "unit": "%"}, {"measurement": "Apoptosis percentage", "setting": "HaCaT cells; 100 μM", "result": "23 ± 2.19", "unit": "%"}, {"measurement": "Apoptosis percentage", "setting": "NMuMG cells; 15 μM", "result": "10.6 ± 2.8", "unit": "%"}, {"measurement": "Apoptosis percentage", "setting": "NMuMG cells; 30 μM", "result": "10.5 ± 2.5", "unit": "%"}]}]}
